In article PMC12566703, “Design, Synthesis, In Vitro and In Silico Biological Evaluation of New Pyridine-2,5-Dicarboxylates Esters Bearing Natural Source Fragments as Anti-Trypanosomatid Agents” (Pharmaceutics, 2025):
Where two headings read alike, the source gives them in different places.

Experiments:
[1] = test system: T. cruzi (A1) epimastigotes; assay: In vitro trypanocidal activity, Alamar Blue assay, 48 h; assay type: cell-based, Trypanosoma cruzi; settings: for Selectivity Index T. cruzi A1: CC50 (J774.2)/IC50; for IC50: 48 h, read-out: T. cruzi IC50 (µM ± SD) A1
Method: (§1) Both strains were maintained in liver infusion tryptose (LIT) medium supplemented with 10% FBS and 0.1% penicillin-streptomycin. They were preserved by transferring 1 × 10^6 parasites/mL into a new culture medium every week. […] The metabolic activity was determined by the Alamar Blue assay. Briefly, after the incubation period, 20 µL of 2.5 mM resazurin solution was added to each well and incubated for 3 h. Three independent experiments were performed in triplicate. The half-maximum inhibitory concentration (IC50) was determined using probit analysis.

[2] = test system: T. cruzi (NINOA) epimastigotes; assay: as above; assay type: cell-based, Trypanosoma cruzi; settings: for Selectivity Index T. cruzi NINOA: CC50 (J774.2)/IC50; for IC50: 48 h, read-out: T. cruzi IC50 (µM ± SD) NINOA; for IC50 / Trypanocidal activity class in words, NINOA strain: epimastigotes, NINOA strain; for Trypanocidal activity class in words, NINOA strain: classes by IC50
Method: as §1

[3] = test system: L. mexicana (MHOM/MX/2017/UABJO17FCQEPS) (FCQEPS) promastigotes; assay: In vitro leishmanicidal activity, MTT method, 48 h; assay type: cell-based, Leishmania mexicana; settings: for Selectivity Index L. mexicana FCQEPS: CC50 (J774.2)/IC50; for IC50: Leishmania mexicana, 48 h, read-out: L. mexicana IC50 (µM ± SD) FCQEPS
Method: (§2) To determine the leishmanicidal activity of pyridine-2,5-dicarboxylates, the parasites, in their logarithmic growth phase (5 × 10^5 parasites/mL), were cultured in 96-well microliter plates with the corresponding pyridine-2,5-dicarboxylate compound at different concentrations (0.78–100 µM). Compounds were dissolved in DMSO in a final volume of 200 µL for 48 h at 26 °C. Parasites treated with DMSO (0.2%) were used as a negative control, while treatments with Glucantime and Amphotericin B, at the same concentrations, were used as positive controls. The metabolic activity of the cells was determined using the 3-(4,5-Dimethylthiazol-2-yl)-2,5-diphenyltetrazolium bromide (MTT) method. IC50 was determined using probit analysis. Three independent experiments were performed in triplicate, and the data were analyzed for statistical significance (p < 0.05) using Biostat 5.3.0 software.

[4] = test system: L. mexicana (MNYC/BZ/62/M379) (M379) promastigotes; assay: In vitro leishmanicidal activity, MTT method, 48 h; assay type: cell-based, Leishmania mexicana; settings: for Selectivity Index L. mexicana M379: CC50 (J774.2)/IC50; for IC50: Leishmania mexicana, 48 h, read-out: L. mexicana IC50 (µM ± SD) M379; for IC50 / Leishmanicidal activity class in words, M379 strain: promastigotes, M379 strain; for Leishmanicidal activity class in words, M379 strain: classes by IC50
Method: as §2

[5] = Cytotoxicity assay, MTT method, 48 h; assay type: cell-based, murine; settings: mouse, J774.2 macrophage cells, J774.2 cell line, read-out: Macrophage J774.2 CC50 (µM ± SD)
Method: A cytotoxicity assay was performed using the murine macrophage J774.2 cell line, which was recloned from the original ascites and solid tumor J774.1 (according to the manufacturer). The cells were cultured in RPMI medium supplemented with 10% SBF, 100 U […] penicillin, 100 µg/mL streptomycin, and glutamine (2 mM), and 5% CO2 atmosphere. The medium was changed every 2–3 days. Macrophages were used at 1 × 10^6 cells and were incubated with compounds at different concentrations (0.75–100 µM, respectively) at 37 °C for 48 h in a 5% CO2 atmosphere. DMSO was used as a negative control (0.2%). The metabolic activity of macrophages was determined by the MTT method. The percentage of cell viability was calculated, and the half-maximal cytotoxic concentration (CC50) was determined using probit analysis. Three independent assays were conducted in triplicate.

[6] = Trypanosoma cruzi, epimastigotes, A1 strain

Row | Structure (SMILES) | Selectivity Index T. cruzi A1 [1] | IC50 [1, 6] | Trypanocidal activity class in words, A1 strain ([1]; epimastigotes, A1 strain, classes by IC50) | Selectivity Index T. cruzi NINOA [2] | Selectivity Index L. mexicana FCQEPS [3] | IC50 ([3]; promastigotes, FCQEPS strain) | Selectivity Index L. mexicana M379 [4] | IC50 [4] | Leishmanicidal activity class in words, M379 strain [4] | CC50 at 48 h [5] | IC50 ([2]; Trypanosoma cruzi) | Trypanocidal activity class in words, NINOA strain [2] | IC50 [2] | IC50 ([1]; epimastigotes, A1 strain) | Leishmanicidal activity class in words, FCQEPS strain ([3]; promastigotes, FCQEPS strain, classes by IC50)
1 | CCOC(=O)c1nc(C)c(C(=O)OCC=Cc2ccccc2)cc1-c1ccc(C)cc1 [Compound 7b] | >1 | > 200 µM | completely lose their trypanocidal activity | >2.0 | >1.7 | 116.71 ± 0.03 µM | >1 | > 200 µM | did not have antiparasitic activity | > 200 µM |  |  |  |  | 
2 | CCOC(=O)c1nc(C)c(C(=O)OCC=Cc2ccccc2)cc1-c1ccc(F)cc1 [Compound 7c] | >8.8 | 22.8 ± 0.69 µM |  | >3.1 | >1 | > 200 µM | >1 | > 200 µM | inactive | > 200 µM | 63.1 ± 1.64 µM |  |  |  | 
3 | CCOC(=O)c1nc(C)c(C(=O)O[C@@H]2C[C@@H](C)CC[C@@H]2C(C)C)cc1-c1ccccc1 [Compound 8a] | >1 | > 200 µM |  | >1 | >2.4 | 82.7 µM | >2.5 | 79.1 µM |  | > 200 µM |  | inactive |  |  | 
4 | CCOC(=O)c1nc(C)c(C(=O)O[C@@H]2C[C@@H](C)CC[C@@H]2C(C)C)cc1-c1ccc(C)cc1 [Compound 8b] | >3.9 |  |  | >1.8 | >1 |  | >1 |  |  | > 200 µM | 106.9 ± 0.5 µM | slight activity | > 200 µM |  | 
5 | CCOC(=O)c1nc(C)c(C(=O)O[C@@H]2C[C@@H](C)CC[C@H]2C(C)C)cc1-c1ccc(F)cc1 [Compound 8c, 2-Ethyl 5-((1R,2S,5S)-2-isopropyl-5-methylcyclohexyl) 3-(4-fluorophenyl)-6-methylpyridine-2,5-dicarboxylate] | >9.2 |  |  | >4.3 | >2.2 | 90.9 ± 5 µM | >1 | > 200 µM |  | > 200 µM | ≤ 56.7 µM |  | 46 ± 3.33 µM |  | 
6 | CCOC(=O)c1nc(C)c(C(=O)OC2C[C@@H]3CC[C@@]2(C)C3(C)C)cc1-c1ccccc1 (stereo partly drawn) [Compound 9a] | >8.0 | < 29 µM |  | >3.6 | >1 | > 200 µM | >1 | > 200 µM | did not have antiparasitic activity | > 200 µM | 55.8 ± 2.5 µM | moderately active (moderately active (IC50 41 to 100 µM)) |  | 25 ± 2.98 µM | did not have leishmanicidal activity
7 | CCOC(=O)c1nc(C)c(C(=O)O[C@@H]2C[C@H]3CC[C@@]2(C)C3(C)C)cc1-c1ccc(C)cc1 [Compound 9b, 2-Ethyl 5-((1S,2R,4R)-1,7,7-trimethylbicyclo[2.2.1]heptan-2-yl) 6-methyl-3-(p-tolyl)pyridine-2,5-dicarboxylate] | >5.2 | < 40 µM |  |  | >2.5 |  | >5.0 |  |  | > 200 µM | < 40 µM |  | 22.3 ± 1.6 µM | 38.5 µM | 
8 | CCOC(=O)c1nc(C)c(C(=O)OC2C[C@@H]3CC[C@@]2(C)C3(C)C)cc1-c1ccc(F)cc1 (stereo partly drawn) [Compound 9c] | >1 | > 200 µM |  | >7.6 | >1 | > 200 µM | >1 | > 200 µM | inactive | > 200 µM | 26.2 µM |  | 26.2 ± 1.55 µM |  | 
